From patent EP0441876B1, “NON-BIOA[…]” (COULSTON INTERNATIONAL CORPORATION, priority 1988, dated 1990) come the findings set out here.

The test system of series [1] is Aedes aegypti. Briefly: Filter paper test for insecticidal activity against mosquitoes (Table 3). The class given is in vivo. The note with it: for 100 % kill: time after which 100% of the mosquitoes were killed. Here is the method:
The experimental design of the test for activity against mosquitoes is as follows.
[…] The filter paper was then placed in a petri dish and 10-20 mosquitoes (Aedes aegypti) added. The effect of the chemical on the mosquitoes (flying activity, mortality) was observed and recorded for up to 72 hours. Generally the experiments were in triplicate, the parent cyclodiene and its dechlorinated derivative were tested and compared to the control; the filter paper of the control was treated with acetone only. A total of 9 pairs of chemicals (parent cyclodiene and dechlorinated derivative) and CIC-134 were tested according to the procedure above.

Series [2] relates to Mosquitoes: Aedes aegypti, Anopheles quadramaculatus. Briefly: Insecticide testing on filter paper: knock-down and killing effect (Table 5). The class given is in vivo. The note with it: for Lowest Concentration With Killing Effect / Lowest Concentration for Knockdown: concentration of acetone solution, 1 ml on filter paper. Here is the method: (§1) • I. Insecticide Testing Insects: Mosquitoes Species: Aedes aegypti, Anopheles quadramaculatus The mosquitoes were bred under controlled conditions (humidity, temperature and nutrition) at White Sands Research center. Test room temperature: approximately 70 F (average) Test room humidity: between 50% and 70% (average) Procedure: The test compounds were dissolved in HPLC grade acetone at the appropriate concentrations. One ml of the solution was applied with a disposable 1 ml syringe on filter paper (Whatman 541, 9.0 cm diameter). After evaporatin of the acetone, the filter paper was placed in a Petri dish (diameter also about 9.0 cm) with alid. […] The mosquitoes (not less than 5 or more than 20) were transferred in the dish through a hole in the lid. The lid was stopped up with a cotton ball wrapped in filter paper and soaked in sugar water. Two dishes with control insects - the filter paper was treated with 1 ml pure acetone - were observed. Readings were taken 3 to 4 times during the first hour, thereafter every hour. […] "Down" (D) = mosquitoes are disabled to fly, lay on their back or side. "Dead" = mosquitoes are completely moveless (e.g. no movement of body, legs or wints). these criteria can be considered as very strict. • II. Bioaccumulation Tests in Rats Species: Sprague Dawley and Fisher Rats Sex: Female Age/Weight: Young rats (average weight between 130 and 180 grams) Procedure: The animals were housed in stainless steel metabolism cages in a temperature controlled animal room. They were quarantined for at least 6 days before being placed on the study. Three rats were taken for each test compound (see appendix for dose levels). Each animal was dosed on five consecutive days by oral gavage. The test compound was dissolved or suspended in 0.5% carboxy methyl cellulose solution or corn oil (Mazola). After 14 days the rats were sacrificed by CO2. Samples of fat (abdominal) liver, kidneys, brain and muscle (leg) were removed and extracted for analysis. The fat of each rat was analyzed separately with regard to the individual total dose. The other organs of all three rats were combined and analyzed with regard to the total dose being applied to all three rats. The analysis was done by gas chromatography under ECD (electron capture detector) detection.

Series [3] can be described thus: Bioaccumulation tests in rats. The class given is in vivo, Sprague Dawley and Fisher Rats. The following applies: female rats, oral gavage on five consecutive days, sacrificed after 14 days, tissue analysis by GC-ECD with regard to total dose. Here is the method:
as §1

The subject of series [4] is Tenebrio molitor (Greater Meal Worm). Briefly: Contact test at 1% concentration. The class given is in vivo.
Series [5] deals with Sitophilus Oryza (Rice Weevil). Briefly: Contact test at 1% concentration. The class given is in vivo.
Series [6] concerns Grainery Weevil. Briefly: Contact test at 1% concentration. The class given is in vivo.
The subject of series [7] is Maize Weevil. Briefly: Contact test at 1% concentration. The class given is in vivo.
For series [8], the system named is Blatella germanica (German cockroach). Briefly: Contact test at 1% concentration. The class given is in vivo.
Series [9] deals with Mosca domestica (House fly). Briefly: Contact test at 1% concentration. The class given is in vivo.
Series [10] concerns Acheta domestica (Crickets). Briefly: Contact test at 1% concentration. The class given is in vivo.
In series [11] the test system is Cimex lectularius (Bed bugs). Briefly: Contact test at 1% concentration. The class given is in vivo.
Series [12] relates to Ctenocephalides felis (Cat fleas). Briefly: Contact test at 1% concentration. The class given is in vivo.
Series [13] has as its system Pediculus humanus (Lice). Briefly: Contact test at 1% concentration. The class given is in vivo.
The mark [14] stands for this setting: 1% solution in acetone, 1 ml on filter paper, time after which 100% of the mosquitoes were affected (dead, lying down, wobbly, erratic).
[15] abbreviates: 1% solution in acetone, 1 ml on filter paper.

For the molecule “1,2,3,4,5-endo,6-endo,7-syn-heptachoronorborn-2-ene [CIC-143]”, in series [1] (setting [14]), the “100% effect” value amounted to 2 h. In addition, the “100 % kill” value in series [1] (setting [15]) was determined as 23 h.

For the molecule “1,2-endo,3-endo,4,7-anti-pentachlronorbornane [CIC-148]”, the “100% effect” value in series [1] (setting [14]) is 0.08 h. Besides, the “100 % kill” value in [1] (setting [15]) is 6 h. In series [2] (0.015%, after 5 hours), this molecule came in with a dead of 60%. The same molecule yielded a down in [2] (0.06%, time not given) of 80%. Moreover, in series [2], the “Lowest Concentration With Killing Effect” value was 0.015% and the “Lowest Concentration for Knockdown” value came to 0.06%. Moreover, the “Bioaccumulation in Rats” value in series [3] is ~1.30% (estimate value).

Take “1,2-endo,3-endo,4,7-syn-pentachloronorbornane [CIC-144]”: the “100% effect” value in [1] (setting [14]) is 0.08 h. Moreover, the “100 % kill” value in [1] (setting [15]) was found to be 23 h. Also, the dead in series [2] (0.06%, after 22 hours) was 79%. In series [2] (0.06%, time not given), this molecule showed a down of 55%. In addition, in series [2], the “Lowest Concentration With Killing Effect” value is listed as 0.06% and the “Lowest Concentration for Knockdown” value is on record as 0.06%. Further, the “Bioaccumulation in Rats” value in series [3] came out at 0.01%.

As for “1,4,7,7-Tetrachloro-bicyclo [2.2.1]-heptane epoxide [CIC-150]”, the “100% effect” value in [1] (setting [14]) was determined as 4 h. For the same molecule, the “100 % kill” value in [1] (setting [15]) amounted to 23 h. The same molecule returned a dead in series [2] (0.5%, after 7 hours) of 27%. The “Lowest Concentration With Killing Effect” value in series [2] worked out at 0.5%.

Consider “1,4,7,7-Tetrachloro-bicyclo- [2.2.1]-heptane-poxide (less) [CIC-149]”, for which the “100% effect” value in [1] (setting [14]) came to 0.33 h. Further, the “100 % kill” value in series [1] (setting [15]) was 9 h. In series [2] (0.063%, after 6 hours), this molecule displayed a dead of 67%. This molecule registered a down in series [2] (0.5%, after 10 minutes) of 36%. In addition, in series [2], the “Lowest Concentration With Killing Effect” value is given as 0.063% and the “Lowest Concentration for Knockdown” value is 0.5%. Also, the “Knock-down, remark in words” value in series [2] (in vivo) was “Not very fast knock-down”.

Regarding `Cl[C@@H]1C[C@]2(Cl)CC[C@@]1(Cl)C2(Cl)Cl` [CIC-141, 1,2-endo,4,7,7-pentachloronorbornane], the “100% effect” value in series [1] (setting [14]) worked out at 0.25 h. For the same molecule, the “100 % kill” value in series [1] (setting [15]) turned out to be 10 h. Moreover, the down in series [2] (0.5%, 5 minutes) amounted to 38%. Moreover, in [2], the “Lowest Concentration With Killing Effect” value is recorded as 0.125% and the “Lowest Concentration for Knockdown” value is listed as 0.5%.

In the case of `ClC12C=CC(Cl)(CC1)C2(Cl)Cl` [CIC-142, 1,4,7,7-tetrachloronorbon-2-ene], the “100% effect” value in series [1] (setting [14]) came to 0.25 h. The “100 % kill” value in series [1] (setting [15]) worked out at 3 h. For the same molecule, the “insecticidal effect in contact test” value in series [4] is “effective insecticides”; in series [5] it was “effective insecticides”; in series [6] it was “no effect”; in [7], “effective insecticides”; in series [8] it was “effective insecticides”; in series [9] it was “effective insecticides”. Also, the “insecticidal effect in contact test” value in series [10] is given as “only mildly effective”; in [11], “effective insecticides”; in series [12], “effective insecticides”; in series [13], “effective insecticides”. Further, in [2] (0.75%, after 4 minutes), the down turned out to be 37%. Moreover, the “Lowest Concentration With Killing Effect” value in series [2] is 0.3%. In [2], the “Lowest Concentration for Knockdown” value stood at 0.75%. The “Bioaccumulation in Rats” value in series [3] is 1.24%.

Take `Cl[C@@H]1[C@H](Cl)[C@]2(Cl)CC[C@@]1(Cl)C2` [CIC-145, 1,2-endo,3-endo,4-tetrachloronorbornane]: the “100% effect” value in [1] (setting [14]) worked out at 0.08 h. Also, the “100 % kill” value in [1] (setting [15]) stood at 3 h. Further, the “insecticidal effect in contact test” value in [4], in series [5], in series [6], in [7], in series [8] and in series [9] was “effective insecticides” throughout. Moreover, the “insecticidal effect in contact test” value in [10], in series [11], in [12] and in series [13] was “effective insecticides” throughout. Further, the mortality at 0.04 % in [2] (0.04%, after 5 hours, read-out: dead) turned out to be 62%. For the same molecule, the down in [2] (0.08%, after 5 minutes) amounted to 63%. Further, the “Lowest Concentration With Killing Effect” value in [2] is reported as 0.04%. Also, in [2], the “Lowest Concentration for Knockdown” value was found to be 0.08%. Further, the “Bioaccumulation in Rats” value in series [3] was >> 0.01%.

As for `Cl[C@H]1[C@H](Cl)[C@@]2(Cl)CC[C@]1(Cl)C2(Cl)Cl` [CIC-146, 1,2-exo,3-endo,4,7,7-hexachloronorbornane], the “100% effect” value in series [1] (setting [14]) was determined as 3 h. Moreover, in series [1] (setting [15]), the “100 % kill” value stood at 24 h. Moreover, in [2], the “Lowest Concentration With Killing Effect” value is reported as over 1%.

With `ClC1=CC2(Cl)CCC1(Cl)C2(Cl)Cl` (stereo not shown) [CIC-147, 1,2,4,7,7-pentachloronorborn-2-ene], the “100% effect” value in series [1] (setting [14]) worked out at 0.08 h. Further, the “100 % kill” value in [1] (setting [15]) came out at 9 h. The same molecule had a down in series [2] (0.125%, 10 minutes) of 63%. Also, the mortality at 0.125 % in series [2] (1.5 h, read-out: dead) was 50%. Moreover, in series [2], the “Lowest Concentration With Killing Effect” value was found to be 0.125% and the “Lowest Concentration for Knockdown” value was 0.125%. Also, the “Bioaccumulation in Rats” value in [3] is given as 1.04%.

In the case of `CC1CC2(Cl)CCC1(Cl)C2(Cl)Cl` (stereo not shown) [CIC-151, 1,4,7,7-tetrachloro-2-methyl-norbornane], the “100% effect” value in [1] (0.5% solution in acetone on filter paper, time after which 100% of the mosquitoes were affected) came to 0.16 h. Besides, the “100 % kill” value in [1] (0.5% solution in acetone on filter paper) came out at 12 h. Moreover, in [2] (0.5%, time not given), the down is given as 73%. Also, in [2], the “Lowest Concentration With Killing Effect” value was determined as 0.50% and the “Lowest Concentration for Knockdown” value was determined as 0.5%. Further, in series [2] (read-out: dead), the mortality at 0.5 % worked out at 73%. Besides, the “Bioaccumulation in Rats” value in series [3] was 0.01%.
